The experiment relates to rat hippocampal neurons. The experiment can be described thus: Optical detection of evoked action potentials in cultured hippocampal neurons. Format: cell-based. As to the method:
To assay VF2.4.Cl's utility for monitoring neuronal activity, hippocampal neurons isolated from rats neonates were loaded with 2 μM VF2.4.Cl for 15 minutes, washed twice and imaged. […] Neurons were patched, current clamped, and injected with a small pulse (250-400 pA, 1-5 ms) to induce action potential firing. By using a high speed EMCCD camera, capable of sampling small regions of interest (ROI) at rates of approximately 2 kHz, enabled single trial optical detection of action potentials. An action potential with a total voltage change of ˜130 mV was well resolved optically and gave a ΔF/F of 24% with a signal-to-noise ratio of 16. Smaller spikes were detectable as well, a 100 mV change gave a ΔF/F of 15% with an SNR of 15. The slightly diminished sensitivity in neurons (0.15% per mV in neurons vs 0.25% per mV in HEK cells) can be explained primarily by the heterogeneous nature of the preparation; overlapping, non-excitable membranes loaded with VF2.4.Cl contribute to a non-responsive fluorescent signal which dilutes the responsive fraction.
To assess whether VF probes can detect action potentials in single trials, we used cultured rat hippocampal neurons. […] We then injected current into a neuron under whole-cell patch-clamp mode to trigger single action potentials and used a high-speed, back-illuminated EMCCD camera to track fast optical signals from VF2.4.Cl, enabling us to resolve action potentials in neurons in single sweeps (FIG. 13B). The optical trace matched the physiology trace and gave about a 20% ΔF/F increase in fluorescence and a 16:1 signal-to-noise ratio (SNR) in a single trial.
HEK293 cells were cultured in DMEM (CellGrow) supplemented with 10% FBS, 1% penicillin/streptomycin (Invitrogen) and plated on glassbottom culture dishes (35 mm dish, 14 mm microwell with No. 0 coverglass) (MatTek Corporation). Hippocampal neurons were dissected from postnatal day 0 or 1 rat pups and plated on poly-D-lysine-coated glassbottom culture dishes. Neuronal recordings were made 14-28 days in culture.
Electrophysiological recordings of HEK293 cells and cultured neurons were performed with an Axopatch 200A or 200B amplifier (Molecular Devices) at room temperature. The signals were digitized with Digidata 1332A and recorded with pCLAMP 9 software (Molecular Devices) on a PC. Analysis of electrophysiological data was done with AxoGraph X (AxoGraphX), pCLAMP 9, and/or ClampFit (Molecular Devices). For most experiments the extracellular solution consisted of (in mM) 145 NaCl, 20 glucose, 10 HEPES, 3 KCl, 2 CaCl2, 1 MgCl2 (pH 7.35, 310 mOsm). The intracellular solution contained (in mM) 115 potassium gluconate, 10 BAPTA tetrapotassium salt, 10 HEPES, 5 NaCl, 10 KCl, 2 ATP disodium salt, 0.3 GTP trisodium salt (pH 7.25, 290 mOsm).
For voltage sensitivity measurements, regions of interest were drawn around clamped cells and the mean fluorescence measured in ImageJ or Slidebook. For HEK cells, background fluorescence was subtracted by measuring the fluorescence where no cells grew. For experiments in neurons, the background fluorescence was not subtracted. In all cases, ΔF/F was calculated by dividing the fluorescence signal by the average fluorescence for a baseline of 10-20 frames prior to stimulation.

As for `CCCCN(CCCC)c1ccc(/C=C/c2ccc(/C=C/c3ccc(-c4c5cc(Cl)c(=O)cc-5oc5cc(O)c(Cl)cc45)c(S(=O)(=O)O)c3)cc2)cc1` [VF2.4.Cl, 5-(4-(4-(dibutylamino)styryl)styryl)-2-(2,7-dichloro-6-hydroxy-3-oxo-3H-xanthen-9-yl)benzenesulfonic acid], under “100 mV change”, the SNR is 15 and the “ΔF/F for smaller spike” value is 15%. Also, the signal-to-noise ratio (action potential ~130 mV, single trial) turned out to be 16. For the same compound, the sensitivity in neurons (rat hippocampal neurons) stood at 0.15 % per mV. For the same compound, the “ΔF/F increase in fluorescence for evoked action potential” value (single trial, 2 μM, EMCCD 2 kHz) is roughly 20%. In addition, the “ΔF/F for action potential” value (total voltage change ~130 mV, single trial, 2 μM) was determined as 24%.

(Values after US11187660B2, “Fluorescent probes for monitoring voltage by photo-induced electron transfer” (The Regents of the University of California, priority 2011, dated 2021).)
